In US11911353B2, “Fatty acid synthase inhibitor and application thereof” (Jiangnan University, priority 2019, dated 2024):

Columns and labels:
Type in all cases: cell-based
[1] = tested on: prostate cancer cells PC-3; assay: MTT tumor proliferation IC50, PC-3; conditions: 72 hours of incubation
Source text: (§1) IC50 (half maximal inhibitory concentration) refers to the half inhibitory concentration of a measured antagonist. It can indicate that a certain concentration of a certain drug or substance (inhibitor) induces tumor cell apoptosis by 50%, and this concentration is referred to as 50% inhibitory concentration, namely, the corresponding concentration when the ratio of apoptotic cells to the total number of cells is equal to 50%. The IC50 value can be used to measure the ability of a drug to induce apoptosis, that is, the higher the inducing ability, the lower the value, which also can indicate the tolerance degree of a certain cell to a drug on the contrary. • (1) Cells in the logarithmic phase are collected, the concentration of a cell suspension is adjusted, it is appropriate to place 100 μl cells in each well of a 96-well plate, the cells are inoculated into the plate to adjust the density of to-be-detected cells to be 1000-10000 cells/well, and edge wells are filled with sterile PBS. • (2) The cells are incubated under 5% CO2 at 37° C., an original culture medium is discarded after complete cell adherence, 200 μl of 1 wt % FBS culture medium containing 0.01 μM, 0.1 μM, 1 μM, 5 μM and 10 μM compound I-1 or cerulenin is added into each well, and there are 6 wells run in duplicate. An equal volume of DMSO is added as a negative control. • (3) After 72 hours of incubation, the cells are photographed for state recording, an original culture medium is discarded, and 100 μl of serum-free culture medium containing 0.5 mg/ml MTT (3-(4,5-dimethylthiazole-2)-2,5-diphenyltetrazolium bromide, trade name thiazolyl blue) is added into each well. • (4) After 2-4 hours of incubation, an original culture medium is discarded, and 150 μl of dimethyl sulfoxide (DMSO) is added into each well and shaken at 300 rpm for 10 minutes to fully dissolve purple crystals. • (5) The absorbance of each well at OD570 nm is measured by an enzyme-linked immunodetection instrument, the absorbance at OD630 nm is used as a reference, dual-wavelength measurement is carried out, and survival rate results are calculated according to the following formula: Cell survival rate=(OD570−OD630)/(OD570 negative control−OD630 negative control);
(§2) wherein, OD570: OD570 value of each treatment group; OD630: OD630 value of each treatment group; OD570 control: OD570 value of the negative control group; OD630 control: OD630 value of the negative control group. • (6) The survival rate results are processed with graphpad 6.0 software according to the concentration gradient, the analysis mode is log (inhibitor) vs. Nonlinear regression (curve fit), and the calculated IC50 value is expressed as x+/−SD.
(§3) The FASN enzyme activity measurement method shown in Experimental Example 18 is used to detect the effects of different substances on FASN enzyme activity. The method shown in Experimental Example 19 is used to detect the effects of different substances on the proliferation of tumor cells, cerulenin is used as a control, and the inhibition rates (%) of different substances on FASN enzyme activity and inhibition rates (IC50 nM) on tumor proliferation are calculated.

[2] = molecular target: T1, fatty acid synthase (FASN) in colon cancer cells HCT116 (Homo sapiens, UniProt P49327); assay: FASN enzyme activity detection in treated HCT116 cells (NADPH absorbance at 340 nm); conditions: for inhibition at 20 µM: HCT-116, 4 hours of incubation, read-out: FASN enzyme activity inhibition rate (%)
T1 construct: endogenous in cells; host or cells: HCT116 colon cancer cells

[3] = tested on: colon cancer cells HCT116; assay: MTT tumor proliferation IC50, HCT116
Source text: as §1, §2, §3

[4] = tested on: tumor cells 22RV1, PC-3, HT-29, Hela, Hep G2, CaCo-2 and HCT116; assay: MTT proliferation of various tumor cells at single concentration (FIG. 2); conditions: 10 μM, 72 hours, 7 different tumor cells
Source text: Cell survival rate=(OD570−OD630)/(OD570 negative control−OD630 negative control); wherein, OD570: OD570 value of each treatment group; OD630: OD630 value of each treatment group; OD570 control: OD570 value of the negative control group; OD630 control: OD630 value of the negative control group.

[5] = Homo sapiens, HCT-116, 72 hours of incubation

T1 sequence (P49327 whole entry): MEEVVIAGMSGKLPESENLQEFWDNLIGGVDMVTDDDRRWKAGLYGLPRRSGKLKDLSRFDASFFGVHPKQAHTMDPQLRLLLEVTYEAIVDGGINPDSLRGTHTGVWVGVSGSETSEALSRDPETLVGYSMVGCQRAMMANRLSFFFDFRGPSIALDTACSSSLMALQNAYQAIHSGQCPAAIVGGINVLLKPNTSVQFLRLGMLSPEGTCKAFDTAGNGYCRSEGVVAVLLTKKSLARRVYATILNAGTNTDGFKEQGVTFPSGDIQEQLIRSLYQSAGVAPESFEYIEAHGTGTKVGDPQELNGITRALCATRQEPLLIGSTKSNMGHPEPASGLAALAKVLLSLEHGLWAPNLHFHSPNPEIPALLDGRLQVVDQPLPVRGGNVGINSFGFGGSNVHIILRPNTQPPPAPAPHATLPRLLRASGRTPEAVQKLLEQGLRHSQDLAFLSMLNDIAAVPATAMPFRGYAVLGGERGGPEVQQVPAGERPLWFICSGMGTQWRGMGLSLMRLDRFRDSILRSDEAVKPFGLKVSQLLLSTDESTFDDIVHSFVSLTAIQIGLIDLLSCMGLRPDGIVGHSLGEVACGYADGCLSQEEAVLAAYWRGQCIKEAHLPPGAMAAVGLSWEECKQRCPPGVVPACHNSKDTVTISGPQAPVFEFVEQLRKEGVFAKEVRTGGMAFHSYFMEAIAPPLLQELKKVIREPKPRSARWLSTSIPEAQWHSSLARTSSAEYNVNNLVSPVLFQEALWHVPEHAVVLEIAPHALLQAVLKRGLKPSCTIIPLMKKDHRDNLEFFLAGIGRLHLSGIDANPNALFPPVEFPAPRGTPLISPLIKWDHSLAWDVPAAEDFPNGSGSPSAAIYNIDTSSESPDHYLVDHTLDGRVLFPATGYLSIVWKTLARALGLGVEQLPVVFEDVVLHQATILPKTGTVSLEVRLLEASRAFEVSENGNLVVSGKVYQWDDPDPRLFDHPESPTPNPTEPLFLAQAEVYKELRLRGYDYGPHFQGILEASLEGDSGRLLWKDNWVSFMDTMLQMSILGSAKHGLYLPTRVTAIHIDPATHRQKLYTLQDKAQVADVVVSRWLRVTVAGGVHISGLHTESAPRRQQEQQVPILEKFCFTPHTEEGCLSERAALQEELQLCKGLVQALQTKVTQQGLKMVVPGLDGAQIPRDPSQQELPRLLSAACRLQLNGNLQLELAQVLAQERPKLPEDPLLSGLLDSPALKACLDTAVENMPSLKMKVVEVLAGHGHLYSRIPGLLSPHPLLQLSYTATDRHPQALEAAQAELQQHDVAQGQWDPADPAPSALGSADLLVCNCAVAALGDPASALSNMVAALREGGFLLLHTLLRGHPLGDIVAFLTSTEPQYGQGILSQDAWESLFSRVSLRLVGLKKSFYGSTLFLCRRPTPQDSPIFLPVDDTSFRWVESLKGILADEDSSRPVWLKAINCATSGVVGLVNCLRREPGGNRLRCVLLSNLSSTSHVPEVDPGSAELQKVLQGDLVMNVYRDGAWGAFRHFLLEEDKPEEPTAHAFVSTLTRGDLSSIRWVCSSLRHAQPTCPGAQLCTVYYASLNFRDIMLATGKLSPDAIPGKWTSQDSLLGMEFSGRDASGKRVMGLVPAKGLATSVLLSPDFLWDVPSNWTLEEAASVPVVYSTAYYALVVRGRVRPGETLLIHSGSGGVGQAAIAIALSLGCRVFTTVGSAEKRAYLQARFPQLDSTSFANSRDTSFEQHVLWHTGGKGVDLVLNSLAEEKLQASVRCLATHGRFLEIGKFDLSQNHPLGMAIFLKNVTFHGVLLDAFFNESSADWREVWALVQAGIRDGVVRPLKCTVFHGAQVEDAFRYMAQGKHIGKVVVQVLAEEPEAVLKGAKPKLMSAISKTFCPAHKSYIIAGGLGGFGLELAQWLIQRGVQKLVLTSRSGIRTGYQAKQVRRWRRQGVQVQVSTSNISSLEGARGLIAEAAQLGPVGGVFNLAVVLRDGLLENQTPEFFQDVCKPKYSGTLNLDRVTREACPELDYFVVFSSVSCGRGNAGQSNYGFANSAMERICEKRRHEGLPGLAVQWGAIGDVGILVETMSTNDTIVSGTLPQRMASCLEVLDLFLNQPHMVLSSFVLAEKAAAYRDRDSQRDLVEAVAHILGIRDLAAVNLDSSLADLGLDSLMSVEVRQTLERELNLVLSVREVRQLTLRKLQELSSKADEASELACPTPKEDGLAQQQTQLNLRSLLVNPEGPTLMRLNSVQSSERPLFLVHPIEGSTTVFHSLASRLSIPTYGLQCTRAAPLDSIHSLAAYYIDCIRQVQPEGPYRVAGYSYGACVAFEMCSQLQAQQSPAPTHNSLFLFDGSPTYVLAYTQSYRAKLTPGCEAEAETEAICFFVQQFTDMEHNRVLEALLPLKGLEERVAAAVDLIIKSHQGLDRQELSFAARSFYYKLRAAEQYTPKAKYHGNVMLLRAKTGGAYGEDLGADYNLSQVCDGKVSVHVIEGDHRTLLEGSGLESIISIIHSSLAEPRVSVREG

| Compound | IC50 [1] [nM] | inhibition at 20 µM [2] [%] | IC50 [3, 5] [nM] | FASN enzyme activity inhibition rate (%) ([2]; 20 μM, 4 hours of incubation) | IC50 ([3]; 72 hours of incubation) [nM] | effect on proliferation of tumor cells [4] |
| --- | --- | --- | --- | --- | --- | --- |
| CCOC(=O)CCCC(=O)Nc1ccc(Br)cc1 [Intermediate 2, Ethyl 5-(4-bromophenylamino)-5-oxopentanoate] | 18 ± 2.5 | 22.2 | 22 ± 3.1 |  |  |  |
| C=C1C(=O)OC(CCCCCCCC)C1C(=O)O (centres unmarked) [Compound C75, C75] |  |  |  |  |  | no significant effect on the proliferation of some tumor cells |
| 5-(4-bromophenylamino)-5-oxopentanoic acid [Intermediate 1] | 15 ± 1.3 |  |  | 31.87 | 19 ± 2.1 |  |
| C/C=C/C/C=C/CCC(=O)[C@H]1O[C@H]1C(N)=O [Cerulenin, cerulenin, reference compound] | 18 ± 2.7 | 21.3 | 29 ± 3.2 |  |  | no significant effect on the proliferation of some tumor cells |

Now from value to compound, other results behind:

| IC50 [1] [nM] | inhibition at 20 µM [2] [%] | IC50 [3, 5] [nM] | FASN enzyme activity inhibition rate (%) ([2]; 20 μM, 4 hours of incubation) | IC50 ([3]; 72 hours of incubation) [nM] | Compound | effect on proliferation of tumor cells [4] |
| --- | --- | --- | --- | --- | --- | --- |
| 14 ± 2.8 | 41.2 | 15 ± 2.5 |  |  | O=C(CCCNC(=O)NCc1cc(Br)ccc1O)Nc1ccc(Br)cc1 [Compound I-3] |  |
| 11 ± 1.8 | 49 | 14 ± 1.7 |  |  | O=C(CCCC(=O)Nc1ccc(Br)cc1)NNC(=O)c1cc(Br)ccc1O [Compound I-4] |  |
| 15 ± 1.8 | 41.9 | 17 ± 2.7 |  |  | O=C(CCC(=O)Nc1ccccc1)/N=C/c1ccccc1 [Compound I-6] |  |
| 16 ± 2.9 | 30.7 | 21 ± 1.6 |  |  | COc1ccc(Br)cc1CNC(=O)NCCCC(=O)Nc1ccc(Br)cc1 [Compound I-2] |  |
| 16 ± 1.7 | 35.2 | 20 ± 3.5 |  |  | O=C(CCC(=O)Nc1ccccc1)/N=C/Cc1ccccc1 [Compound I-8] |  |
| 15 ± 2.1 | 37.7 | 19 ± 1.9 |  |  | O=C(CCC(=O)Nc1ccccc1)NC(=O)c1ccccc1 [Compound I-7] |  |
